Results as given in ChEMBL document CHEMBL4382234, “Fluoroquinolone-isatin hybrids and their biological activities” (Eur J Med Chem, 2019).
Converted amounts (≈) assume the structure as drawn.

The compounds below were run on Mycobacterium tuberculosis (assay: Antimycobacterial activity against multidrug-resistant Mycobacterium tuberculosis after 3 to 7 days by rapid direct susceptibility test).
Format: functional

Row | Structure (SMILES) | MIC [µg/mL]
1 | COc1c(N2C[C@@H]3CCCN(Cc4cn(CCN5C(=O)C(=O)c6ccccc65)nn4)[C@@H]3C2)c(F)cc2c(=O)c(C(=O)O)cn(C3CC3)c12 | 0.1 to 0.78 (≈ 0.153 to 1.19 µM)
2 | CCO/N=C1/C(=O)N(CCn2cc(CN3CCC[C@H]4CN(c5c(F)cc6c(=O)c(C(=O)O)cn(C7CC7)c6c5OC)C[C@H]43)nn2)c2ccccc21 | 0.1 to 0.78 (≈ 0.143 to 1.12 µM)
3 | COc1c(N2C[C@@H]3CCCN(Cc4cn(CCN5C(=O)/C(=N/NC(N)=O)c6ccccc65)nn4)[C@@H]3C2)c(F)cc2c(=O)c(C(=O)O)cn(C3CC3)c12 | 0.1 to 0.78 (≈ 0.14 to 1.09 µM)
4 | CO/N=C1/C(=O)N(CCCN2CCN(c3c(F)cc4c(=O)c(C(=O)O)cn(C5CC5)c4c3OC)CC2C)c2ccc(F)cc21 (centres undefined) | 0.25 (≈ 0.41 µM)
5 | COc1c(N2C[C@@H]3CCCN(Cc4cn(CCN5C(=O)/C(=N/O)c6cc(Br)ccc65)nn4)[C@@H]3C2)c(F)cc2c(=O)c(C(=O)O)cn(C3CC3)c12 | 0.1 to 0.78 (≈ 0.133 to 1.04 µM)
6 | CO/N=C1/C(=O)N(CCn2cc(CN3CCC[C@H]4CN(c5c(F)cc6c(=O)c(C(=O)O)cn(C7CC7)c6c5OC)C[C@H]43)nn2)c2ccc(Br)cc21 | 0.1 to 0.78 (≈ 0.131 to 1.02 µM)
7 | CO[C@H]1/C=C/O[C@@]2(C)Oc3c(C)c(O)c4c(O)c(c(/C=N/N5CCN(C)CC5)c(O)c4c3C2=O)NC(=O)/C(C)=C\C=C\[C@H](C)[C@H](O)[C@@H](C)[C@@H](O)[C@@H](C)[C@H](OC(C)=O)[C@@H]1C [RIFAMPIN] | 32 to 64 (≈ 38.9 to 77.8 µM)
8 | COc1c(N2C[C@@H]3CCCN(Cc4cn(CCN5C(=O)C(=O)c6cc(Br)ccc65)nn4)[C@@H]3C2)c(F)cc2c(=O)c(C(=O)O)cn(C3CC3)c12 | 0.1 to 0.78 (≈ 0.136 to 1.06 µM)
9 | COc1c(N2C[C@@H]3CCCN(Cc4cn(CCN5C(=O)/C(=N/O)c6ccccc65)nn4)[C@@H]3C2)c(F)cc2c(=O)c(C(=O)O)cn(C3CC3)c12 | 0.1 to 0.78 (≈ 0.149 to 1.16 µM)
10 | NNC(=O)c1ccncc1 [ISONIAZID] | > 128
11 | CCO/N=C1/C(=O)N(CCn2cc(CN3CCC[C@H]4CN(c5c(F)cc6c(=O)c(C(=O)O)cn(C7CC7)c6c5OC)C[C@H]43)nn2)c2ccc(Br)cc21 | 0.1 to 0.78 (≈ 0.129 to 1 µM)
12 | COc1c(N2C[C@@H]3CCCN[C@@H]3C2)c(F)cc2c(=O)c(C(=O)O)cn(C3CC3)c12 [MOXIFLOXACIN] | 0.12 (≈ 0.299 µM)
13 | COc1c(N2C[C@@H]3CCCN(Cc4cn(CCN5C(=O)/C(=N/NC(N)=O)c6cc(Br)ccc65)nn4)[C@@H]3C2)c(F)cc2c(=O)c(C(=O)O)cn(C3CC3)c12 | 0.1 to 0.78 (≈ 0.126 to 0.985 µM)
14 | CO/N=C1/C(=O)N(CCn2cc(CN3CCC[C@H]4CN(c5c(F)cc6c(=O)c(C(=O)O)cn(C7CC7)c6c5OC)C[C@H]43)nn2)c2ccccc21 | 0.1 to 0.78 (≈ 0.146 to 1.14 µM)
15 | COc1c(N2CCNC(C)C2)c(F)cc2c(=O)c(C(=O)O)cn(C3CC3)c12 (centres undefined) [GATIFLOXACIN] | 1 (≈ 2.66 µM)

What follows are compounds tested on Mycobacterium tuberculosis (assay: Potency index, ratio of gatifloxacin MIC to test compound MIC for multidrug-resistant Mycobacterium tuberculosis).
Format: functional

Row | Structure (SMILES) | Ratio
16 | CO/N=C1/C(=O)N(CCCN2CCN(c3c(F)cc4c(=O)c(C(=O)O)cn(C5CC5)c4c3OC)CC2C)c2ccc(F)cc21 (centres undefined) | >=4 - 512

What follows are compounds tested on Mycobacterium tuberculosis (assay: Potency index, ratio of rifampicin MIC to test compound MIC for multidrug-resistant Mycobacterium tuberculosis).
Format: functional

Row | Structure (SMILES) | Ratio
17 | CO/N=C1/C(=O)N(CCCN2CCN(c3c(F)cc4c(=O)c(C(=O)O)cn(C5CC5)c4c3OC)CC2C)c2ccc(F)cc21 (centres undefined) | >=4 - 512

Each compound was assayed on Mycobacterium tuberculosis (assay: Antimycobacterial activity against isoniazid/rifampicin/ethambutol-resistant Mycobacterium tuberculosis after 3 to 7 days by rapid direct susceptibility test).
Format: functional

Row | Structure (SMILES) | MIC [µg/mL]
18 | Cc1ccc2c(c1)/C(=N\NC(N)=S)C(=O)N2CCCN1CCN(c2cc3c(cc2F)c(=O)c(C(=O)O)cn3C2CC2)CC1 | 0.1 to 64 (≈ 0.165 to 106 µM)
19 | Cc1ccc2c(c1)/C(=N\NC(N)=O)C(=O)N2CCCN1CCN(c2cc3c(cc2F)c(=O)c(C(=O)O)cn3C2CC2)CC1 | 0.1 to 64 (≈ 0.17 to 109 µM)
20 | O=C(O)c1cn(C2CC2)c2cc(N3CCN(CCCN4C(=O)/C(=N/O)c5ccccc54)CC3)c(F)cc2c1=O | 0.1 to 64 (≈ 0.187 to 120 µM)
21 | NC(=S)N/N=C1/C(=O)N(CCCN2CCN(c3cc4c(cc3F)c(=O)c(C(=O)O)cn4C3CC3)CC2)c2ccccc21 | 0.1 to 64 (≈ 0.169 to 108 µM)
22 | Cc1ccc2c(c1)/C(=N\O)C(=O)N2CCCN1CCN(c2cc3c(cc2F)c(=O)c(C(=O)O)cn3C2CC2)CC1 | 0.1 to 64 (≈ 0.183 to 117 µM)
23 | NC(=O)N/N=C1/C(=O)N(CCCN2CCN(c3cc4c(cc3F)c(=O)c(C(=O)O)cn4C3CC3)CC2)c2ccccc21 | 0.1 to 64 (≈ 0.174 to 111 µM)

What follows are compounds tested on Mycobacterium tuberculosis (assay: Antimycobacterial activity against multidrug-resistant Mycobacterium tuberculosis 09710 by rapid direct susceptibility test).
Format: functional

Row | Structure (SMILES) | MIC [µg/mL]
24 | CO/N=C1\C(=O)N(CCN2CCC[C@H]3CN(c4c(F)cc5c(=O)c(C(=O)O)cn(C6CC6)c5c4OC)C[C@H]32)c2cc(F)ccc21 | 0.39 to 16 (≈ 0.627 to 25.7 µM)
25 | CO/N=C1\C(=O)N(CN2CCC[C@H]3CN(c4c(F)cc5c(=O)c(C(=O)O)cn(C6CC6)c5c4OC)C[C@H]32)c2ccccc21 | 0.39 to 16 (≈ 0.661 to 27.1 µM)
26 | CCO/N=C1\C(=O)N(CCN2CCC[C@H]3CN(c4c(F)cc5c(=O)c(C(=O)O)cn(C6CC6)c5c4OC)C[C@H]32)c2ccc(F)cc21 | 0.39 to 16 (≈ 0.614 to 25.2 µM)
27 | CO/N=C1\C(=O)N(CN2CCC[C@H]3CN(c4c(F)cc5c(=O)c(C(=O)O)cn(C6CC6)c5c4OC)C[C@H]32)c2ccc(F)cc21 | 0.39 to 16 (≈ 0.642 to 26.3 µM)
28 | COc1c(N2C[C@@H]3CCCN(CN4C(=O)/C(=N\O)c5cc(F)ccc54)[C@@H]3C2)c(F)cc2c(=O)c(C(=O)O)cn(C3CC3)c12 | 0.39 to 16 (≈ 0.657 to 27 µM)
29 | COc1c(N2C[C@@H]3CCCN(CN4C(=O)C(=O)c5cc(F)ccc54)[C@@H]3C2)c(F)cc2c(=O)c(C(=O)O)cn(C3CC3)c12 | 0.39 to 16 (≈ 0.674 to 27.7 µM)
30 | COc1c(N2C[C@@H]3CCCN(CCN4C(=O)/C(=N\NC(N)=O)c5cc(F)ccc54)[C@@H]3C2)c(F)cc2c(=O)c(C(=O)O)cn(C3CC3)c12 | 0.39 to 16 (≈ 0.6 to 24.6 µM)
31 | COc1c(N2C[C@@H]3CCCN(CCN4C(=O)/C(=N\NC(N)=S)c5ccccc54)[C@@H]3C2)c(F)cc2c(=O)c(C(=O)O)cn(C3CC3)c12 | 0.39 to 16 (≈ 0.602 to 24.7 µM)
32 | CCO/N=C1\C(=O)N(CN2CCC[C@H]3CN(c4c(F)cc5c(=O)c(C(=O)O)cn(C6CC6)c5c4OC)C[C@H]32)c2ccccc21 | 0.39 to 16 (≈ 0.646 to 26.5 µM)
33 | COc1c(N2C[C@@H]3CCCN(CCN4C(=O)/C(=N\NC(N)=O)c5ccccc54)[C@@H]3C2)c(F)cc2c(=O)c(C(=O)O)cn(C3CC3)c12 | 0.39 to 16 (≈ 0.617 to 25.3 µM)
34 | COc1c(N2C[C@@H]3CCCN(CCN4C(=O)C(=O)c5cc(F)ccc54)[C@@H]3C2)c(F)cc2c(=O)c(C(=O)O)cn(C3CC3)c12 | 0.39 to 16 (≈ 0.658 to 27 µM)
35 | COc1c(N2C[C@@H]3CCCN(CN4C(=O)/C(=N\NC(N)=S)c5ccccc54)[C@@H]3C2)c(F)cc2c(=O)c(C(=O)O)cn(C3CC3)c12 | 0.39 to 16 (≈ 0.615 to 25.2 µM)
36 | CO/N=C1\C(=O)N(CCN2CCC[C@H]3CN(c4c(F)cc5c(=O)c(C(=O)O)cn(C6CC6)c5c4OC)C[C@H]32)c2ccccc21 | 0.39 to 16 (≈ 0.646 to 26.5 µM)
37 | COc1c(N2C[C@@H]3CCCN(CCN4C(=O)/C(=N\NC(N)=S)c5cc(F)ccc54)[C@@H]3C2)c(F)cc2c(=O)c(C(=O)O)cn(C3CC3)c12 | 0.39 to 16 (≈ 0.586 to 24 µM)
38 | COc1c(N2C[C@@H]3CCCN(CN4C(=O)/C(=N\NC(N)=O)c5cc(F)ccc54)[C@@H]3C2)c(F)cc2c(=O)c(C(=O)O)cn(C3CC3)c12 | 0.39 to 16 (≈ 0.614 to 25.2 µM)
39 | COc1c(N2C[C@@H]3CCCN(CN4C(=O)C(=O)c5ccccc54)[C@@H]3C2)c(F)cc2c(=O)c(C(=O)O)cn(C3CC3)c12 | 0.39 to 16 (≈ 0.696 to 28.5 µM)
40 | COc1c(N2C[C@@H]3CCCN(CN4C(=O)/C(=N\O)c5ccccc54)[C@@H]3C2)c(F)cc2c(=O)c(C(=O)O)cn(C3CC3)c12 | 0.39 to 16 (≈ 0.678 to 27.8 µM)
41 | COc1c(N2C[C@@H]3CCCN(CCN4C(=O)/C(=N\O)c5cc(F)ccc54)[C@@H]3C2)c(F)cc2c(=O)c(C(=O)O)cn(C3CC3)c12 | 0.39 to 16 (≈ 0.642 to 26.3 µM)
42 | COc1c(N2C[C@@H]3CCCN(CCN4C(=O)C(=O)c5ccccc54)[C@@H]3C2)c(F)cc2c(=O)c(C(=O)O)cn(C3CC3)c12 | 0.39 to 16 (≈ 0.679 to 27.8 µM)
43 | COc1c(N2C[C@@H]3CCCN(CN4C(=O)/C(=N\NC(N)=O)c5ccccc54)[C@@H]3C2)c(F)cc2c(=O)c(C(=O)O)cn(C3CC3)c12 | 0.39 to 16 (≈ 0.631 to 25.9 µM)
44 | COc1c(N2C[C@@H]3CCCN[C@@H]3C2)c(F)cc2c(=O)c(C(=O)O)cn(C3CC3)c12 [MOXIFLOXACIN] | 0.1 to 1 (≈ 0.249 to 2.49 µM)
45 | COc1c(N2C[C@@H]3CCCN(CN4C(=O)/C(=N\NC(N)=S)c5cc(F)ccc54)[C@@H]3C2)c(F)cc2c(=O)c(C(=O)O)cn(C3CC3)c12 | 0.39 to 16 (≈ 0.598 to 24.6 µM)
46 | COc1c(N2C[C@@H]3CCCN(CCN4C(=O)/C(=N\O)c5ccccc54)[C@@H]3C2)c(F)cc2c(=O)c(C(=O)O)cn(C3CC3)c12 | 0.39 to 16 (≈ 0.661 to 27.1 µM)
47 | CCO/N=C1\C(=O)N(CCN2CCC[C@H]3CN(c4c(F)cc5c(=O)c(C(=O)O)cn(C6CC6)c5c4OC)C[C@H]32)c2ccccc21 | 0.39 to 16 (≈ 0.631 to 25.9 µM)
48 | CCO/N=C1\C(=O)N(CN2CCC[C@H]3CN(c4c(F)cc5c(=O)c(C(=O)O)cn(C6CC6)c5c4OC)C[C@H]32)c2ccc(F)cc21 | 0.39 to 16 (≈ 0.627 to 25.7 µM)

These compounds were tested on Mycobacterium tuberculosis (assay: Potency index, ratio of isoniazid MIC to test compound MIC for multidrug-resistant Mycobacterium tuberculosis).
Format: functional

Row | Structure (SMILES) | Ratio
49 | CO/N=C1/C(=O)N(CCCN2CCN(c3c(F)cc4c(=O)c(C(=O)O)cn(C5CC5)c4c3OC)CC2C)c2ccc(F)cc21 (centres undefined) | >=4 - 512
